Values after ≈ are worked out from the molar mass of the structure shown.
What was measured:
[1] = test system: Lactobacillus acidophilus; assay: Effect on the intestinal bacterial colonies: Lactobacillus acidophilus in feces; format: in vivo; conditions: mice; for Logarithmic value of the number of bacterial cells per one g of feces, L. acidophilus: oral 500 mg/kg/day for two consecutive days, feces one day after administration
Protocol: (§1) Each of the cephalosporin derivatives of the invention prepared in Examples 1 to 10 was orally administered to mice (one group consisting of five female ICR mice of 6-week-old) for two consecutive days at a dose of 500 mg/kg/day.
(§2) Before and one day after the administration, feces of each mouse were collected and diluted with an anaerobic diluent (phosphoric buffer solution) of 100 times volume and the diluted feces were ground. 0.1 ml of the diluted and ground feces was smeared on each culture medium shown in Table 1 and cultured aerobically or anaerobically (according to the anaerobic glove box method) under each condition shown in Table 1 and the number of each bacterium shown in Table 1 was counted.
Lactobacillus acidophilus
LBS agar anaerobic, 37° C.,

[2] = test system: Escherichia coli; assay: Effect on the intestinal bacterial colonies: Escherichia coli in feces; format: in vivo; conditions: mice; for Logarithmic value of the number of bacterial cells per one g of feces, E. coli: oral 500 mg/kg/day for two consecutive days, feces one day after administration
Protocol: as §1, §2
DHL agar aerobic, 37° C.,

[3] = test system: Lactobacillus bifidus; assay: Effect on the intestinal bacterial colonies: Lactobacillus bifidus in feces; format: in vivo; conditions: mice, oral 500 mg/kg/day for two consecutive days, feces one day after administration
Protocol: as §1, §2
BS agar anaerobic, 37° C.,

[4] = test system: Streptococcus spp.; assay: Effect on the intestinal bacterial colonies: Streptococcus spp. in feces; format: in vivo; conditions: mice, oral 500 mg/kg/day for two consecutive days, feces one day after administration
Protocol: as §1, §2
TATAC agar aerobic, 37° C.,

[5] = test system: Bacteroides; assay: Effect on the intestinal bacterial colonies: Bacteroides in feces; format: in vivo; conditions: mice, oral 500 mg/kg/day for two consecutive days, feces one day after administration
Protocol: as §1, §2
Bacteroides NBGT agar anaerobic, 37° C.,

[6] = test system: Pseudomonas aeruginosa; assay: Effect on the intestinal bacterial colonies: Pseudomonas aeruginosa in feces; format: in vivo; conditions: mice, oral 500 mg/kg/day for two consecutive days, feces one day after administration
Protocol: as §1, §2
NAC agar aerobic, 37° C.,

[7] = test system: Staphylococcus aureus IAM 1011; assay: Activation by rat liver homogenate (S-9 mix), proliferation-inhibiting circle, penicillin cup method; format: cell-based; conditions: incubated with rat liver S-9 mix, 37° C. 20 min; circle diameter relative to the starting compound
Protocol: As an activating enzyme of metabolism, a rat liver homogenate (S-9, manufactured by Oriental Yeast Company, Japan) was used in the following composition per 1 ml (hereinafter referred to as S-9 mix). 0.1 ml of the solution of each of the cephalosporin derivatives of the invention prepared in Examples 1 to 10 at a concentration of 100 μg/ml was mixed with 0.9 ml of S-9 mix or 0.9 ml of 0.1 M phosphoric buffer solution (as a control) and the obtained mixture was incubated at 37° C. for 20 min. with shaking. Staphylococcus aureus IAM 1011 was inoculated into a Mueller-Hinton's culture medium and cultured at 37° C. for 18 hours. The culture medium was adjusted to a cell concentration of 1×10^8 per 1 ml and mixed with 50 times by volume of Mueller-Hinton's agar culture medium to obtain an agar plate. A penicillin cup of 8 mm in diameter was placed on the agar plate prepared above, and into the cup 0.1 ml of the mixture containing the cephalosporin derivative prepared above was introduced and allowed to stand at 4° C. for 2 hours, and then cultured at 37° C. for 18 hours to measure the diameter of a circle in which the proliferation of bacteria was inhibited (proliferation-inhibiting circle). In Table 4, the proliferation-inhibiting index is shown in the ratio (%) of the diameter of the proliferation-inhibiting circle obtained by using each of the cephalosporin derivatives of the invention to that obtained by using each of the starting compound in preparing each of the cephalosporin derivatives of the invention.

[8] = test system: Escherichia coli IFO 12734; assay: Antibacterial activity (MIC, agar plate) against E. coli; format: cell-based; conditions: Escherichia coli IFO 12734, Mueller-Hinton agar, 37° C., 18 to 24 hours; unit assumed
Protocol: (§3) Antibacterial activity of each of the cephalosporin derivatives of the invention prepared in Examples 1 to 10 was examined against the following two bacteria according to the standard method of Japan Society of Chemitherapy: Escherichia coli IFO 12734 and Staphylococcus aureus IAM 1011.
(§4) Each bacterial strain was inoculated into the Mueller-Hinton's culture medium and cultured at 37° C. for 18 to 48 hours. The cultured medium was diluted so as to contain 1×10^6 cells of the bacteria per one ml, and the obtained medium was used as the bacterial specimen.
(§5) Agar plates were prepared by adding one part by weight of each solution of the cephalosporin derivative of the invention at a predetermined concentration to nine parts by weight of Mueller-Hinton's culture medium.
(§6) A loopful amount of the bacterial specimen prepared above was smeared to make a streak of about 2 cm on each agar plate prepared above and cultured at 37° C. for 18 to 24 hours.
(§7) The minimum concentration for completely inhibiting proliferation of the bacteria (referred to as MIC) was determined.

[9] = test system: Staphylococcus aureus IAM 1011; assay: Antibacterial activity (MIC, agar plate) against Staph. aureus; format: cell-based; conditions: Staphylococcus aureus IAM 1011, Mueller-Hinton agar, 37° C., 18 to 24 hours; unit assumed
Protocol: as §3, §4, §5, §6, §7

[10] = oral 500 mg/kg/day for two days, feces

| SMILES | MIC E. coli [8] [µg/mL] | MIC Staph. aureus [9] [µg/mL] | Logarithmic value of the number of bacterial cells per one g of feces, L. acidophilus [1] | change in the number of Lactobacillus acidophilus [1, 10] | Logarithmic value of the number of bacterial cells per one g of feces, E. coli [2] | change in the number of Escherichia coli as compared to that before administration [2, 10] | Logarithmic value of the number of bacterial cells per one g of feces, L. bifidus [3] | Logarithmic value of the number of bacterial cells per one g of feces, Strept. spp. [4] | Logarithmic value of the number of bacterial cells per one g of feces, Bacteroides [5] | Logarithmic value of the number of bacterial cells per one g of feces, Ps. aeruginosa [6] | Proliferation-inhibiting index (%) After adding S-9 mix [7] |
| --- | --- | --- | --- | --- | --- | --- | --- | --- | --- | --- | --- |
| CC(=O)OCC1=C(C(=O)O)N2C(=O)[C@@H](NC(=O)Cc3cccs3)[C@H]2SC1 [Cephalotin, cephalotin, reference compound] | – | – | 4.1 | decreased | 9.9 | increased | 9.2 | 9.0 | 7.2 | < 3.0 | – |
| CC(=O)OCC1=C(C(=O)Nc2ccc(O)cc2)N2C(=O)C(NC(=O)Cc3cccs3)C2SC1 (centres unmarked) [Example 1, N-(4-hydroxyphenyl)-7-(thienyl-2-acetamido)cephalosporanic acid amide] | ≥ 100 | ≥ 12.5 | 8.9 | – | 6.5 | – | 8.2 | 6.3 | 8.7 | < 3.0 | +++ (66-100) |
| COC(=O)c1ccc(NC(=O)C2=C(COC(C)=O)CSC3C(NC(=O)Cc4cccs4)C(=O)N23)cc1 (centres unmarked) [Example 2, N-(4-carbomethoxyphenyl)-7-(thienyl-2-acetamido)cephalosporanic acid amide] | ≥ 25 | 0.2 (≈ 0.378 µM) | 9.1 | – | 6.4 | – | 8.6 | 6.7 | 8.1 | < 3.0 | ++ (33-66) |
| CCCCOC(=O)c1ccc(NC(=O)C2=C(COC(C)=O)CSC3C(NC(=O)Cc4cccs4)C(=O)N23)cc1 (centres unmarked) [Example 4, N-(4-carbo-n-butoxyphenyl)-7-(thienyl-2-acetamido)cephalosporanic acid amide] | ≥ 100 | ≥ 12.5 | 9.1 | – | 6.4 | – | 8.5 | 6.7 | 8.1 | < 3.0 | ++ (33-66) |

Now from value to compound, other results behind:

| MIC E. coli [8] [µg/mL] | MIC Staph. aureus [9] [µg/mL] | SMILES | Logarithmic value of the number of bacterial cells per one g of feces, L. acidophilus [1] | change in the number of Lactobacillus acidophilus [1, 10] | Logarithmic value of the number of bacterial cells per one g of feces, E. coli [2] | change in the number of Escherichia coli as compared to that before administration [2, 10] | Logarithmic value of the number of bacterial cells per one g of feces, L. bifidus [3] | Logarithmic value of the number of bacterial cells per one g of feces, Strept. spp. [4] | Logarithmic value of the number of bacterial cells per one g of feces, Bacteroides [5] | Logarithmic value of the number of bacterial cells per one g of feces, Ps. aeruginosa [6] | Proliferation-inhibiting index (%) After adding S-9 mix [7] |
| --- | --- | --- | --- | --- | --- | --- | --- | --- | --- | --- | --- |
| ≥ 100 | ≥ 12.5 | CCOC(=O)c1ccc(NC(=O)C2=C(COC(C)=O)CSC3C(NC(=O)Cc4cccs4)C(=O)N23)cc1 (centres unmarked) [Example 3, N-(4-carboethoxyphenyl)-7-(thienyl-2-acetamido)cephalosporanic acid amide] | 9.0 | – | 6.5 | – | 8.3 | 6.5 | 8.1 | < 3.0 | ++ (33-66) |
| ≥ 100 | 1.56 (≈ 2.95 µM) | CC(=O)OCC1=C(C(=O)Nc2ccc(CC(=O)O)cc2)N2C(=O)C(NC(=O)Cc3cccs3)C2SC1 (centres unmarked) [Example 5, N-(4-carboxymethylphenyl)-7-(thienyl-2-acetamido)cephalosporanic acid amide] | 9.1 | – | 6.5 | – | 8.4 | 6.8 | 8.2 | < 3.0 | +++ (66-100) |
| ≥ 100 | ≥ 12.5 | COC(=O)Cc1ccc(NC(=O)C2=C(COC(C)=O)CSC3C(NC(=O)Cc4cccs4)C(=O)N23)cc1 (centres unmarked) [Example 6, N-(4-carbomethoxymethylphenyl)-7-(thienyl-2-acetamido)cephalosporanic acid amide] | 8.9 | – | 6.8 | – | 8.3 | 6.5 | 8.8 | < 3.0 | +++ (66-100) |
| ≥ 100 | 6.25 (≈ 11.2 µM) | CCOC(=O)Cc1ccc(NC(=O)C2=C(COC(C)=O)CSC3C(NC(=O)Cc4cccs4)C(=O)N23)cc1 (centres unmarked) [Example 7, N-(4-carboethoxymethylphenyl)-7-(thienyl-2-acetamido)cephalosporanic acid amide] | 8.9 | – | 6.4 | – | 8.3 | 6.6 | 8.8 | < 3.0 | +++ (66-100) |
| ≥ 100 | 12.5 (≈ 21.8 µM) | CC(=O)OCC1=C(C(=O)Nc2ccc(C(=O)NCC(=O)O)cc2)N2C(=O)C(NC(=O)Cc3cccs3)C2SC1 (centres unmarked) [Example 8, N-(4-carboxymethylcarbamoylphenyl)-7-(thienyl-2-acetamido)cephalosporanic acid amide] | 9.1 | – | 6.4 | – | 8.5 | 6.8 | 8.1 | < 3.0 | ++ (33-66) |
